Assay results: patent publication US12257347B2, “Pharmaceutical composition comprising meta arsenite and method of manufacture” (KOMIPHARM INT[…] PTY LTD, priority 2018, dated 2025)

Key:
[1] = Solubility of the supplied SMA drug substance; assay type: physicochemical
Source text: (§1) Sodium meta-arsenite (“SMA”) was obtained from Sigma Aldrich Fine Chemicals. […]

[2] = Hygroscopicity (moisture uptake) of the supplied SMA drug substance; assay type: physicochemical
Source text: as §1

O=[As][O-].[Na+] [SMA, sodium meta-arsenite]
Solubility [1]: Approx. 950 mg/mL | Hygroscopicity (moisture uptake) ([2]; at 75% RH): ~40% at 75% RH | Hygroscopicity (moisture uptake) ([2]; at 80% RH): >80% at 80% RH | Hygroscopicity (moisture uptake) ([2]; at 90% RH): >130% at 90% RH
